Source: article PMC10974290, “Biocatalytic Synthesis of Coumarin S-Glycosides: Towards Non-Cytotoxic Probes for Biomedical Imaging and Sensing” (Molecules, 2024)

What follows are compounds tested on A-549 (lung carcinoma) (assay: MTT cell proliferation assay, A-549). Conditions: 72 h incubation, 95% confidence interval in parentheses.
Type: cell-based, human
Description: (§1) To use these S-glycosidic compounds in cellulo, the potential impact of the glycosidic linkage nature on the anticancer activity was assessed. The S-glycoside derivatives and the 7-MC were tested against four human cancer cell lines and a healthy one, namely A549 (lung carcinoma), HS-683 (glioma cancer), MCF-7 (breast adenocarcinoma), SK-MEL-28 (melanoma skin cancer), and HaCaT (keratinocyte normal skin), using MTT (thiazolyl blue tetrazolium bromide, Sigma-Aldrich, St. Louis, MO, USA) assay, as previously described in the literature.
Cell proliferation of five distinct cell lines was evaluated using the colorimetric MTT (thiazolyl blue tetrazolium bromide, Sigma) assay. Human keratinocyte normal skin HaCaT was cultivated in DMEM supplemented with 4.5 g/L glucose, 2 mM L-glutamine, and 10% FBS. Cancer cell lines and their respective growth media were obtained from CLS Cell Line Service GmbH (Eppelheim, Germany). Specifically, human skin melanoma SK-MEL-28 and human brain glioma HS683 were cultivated in DMEM with identical supplements as HaCaT cells. The human lung carcinoma cell line A-549 was grown in DMEM/Ham’s F12 (1:1) medium supplemented with 2 mM L-glutamine and 5% FBS. Additionally, human breast adenoma carcinoma MCF-7 cells were sustained in EMEM supplemented with 2 mM L-glutamine, sodium pyruvate, non-essential amino acids (NEAAs), 10 µg/mL insulin human, and 10% FBS. The MTT assay relies on the reduction of the yellow product thiazolyl blue tetrazolium bromide (MTT) to formazan, a purple-blue product, by mitochondrial dehydrogenases in metabolically active cells. The number of living cells after incubation in the presence (or absence, control) of the tested molecules is directly proportional to the blue color, which was measured by spectrophotometry. To perform the assay, cells were initially seeded at a density of 2500 cells/mL in 96-well culture plates (Nunc™ Edge 2.0, Fisher) and allowed to adhere and proliferate over a 24-hour incubation period. Following this, the cells were treated with various concentrations of the tested compounds, which were previously prepared as serial dilutions and dissolved in 0.1% DMSO. […] Each concentration of the tested compounds underwent triplicate testing (n = 3), and cells were subsequently incubated for 72 h to allow for thorough evaluation. Following this incubation period, MTT reagent (5 mg/mL solution in PBS) was introduced to each well (10% v/v), and cells were further incubated for 4 h. Then, the culture medium was carefully removed, and the resulting blue formazan crystals were dissolved in 100 µL of 100% DMSO. Absorbance readings were taken at 540 nm, referencing a wavelength of 620 nm, using a spectrophotometer. In determining the IC50, the absorbance of serial dilutions of each cell line, treated under identical conditions but without the presence of the tested compounds, was measured.
Cc1cc(=O)oc2cc(S[C@@H]3OC[C@@H](O)[C@H](O)[C@H]3O)ccc12 [Compound S-2, 4-Methylumbellifer-7-yl 1-thio-β-D-xylopyranoside] was tested, and the IC50 was 74.8 µM.

Same assay, conditions: Homo sapiens, A549, 72 h, 72 h incubation, 95% confidence interval in parentheses
For Cc1cc(=O)oc2cc(S)ccc12 [Compound 7-MC, 7-mercapto-4-methylcoumarin, reference compound], the IC50 was over 1000 µM.
With Cc1cc(=O)oc2cc(S[C@@H]3O[C@H](C(=O)O)[C@@H](O)[C@H](O)[C@H]3O)ccc12 [Compound S-1, 4-Methylumbellifer-7-yl 1-thio-β-D-glucopyranosiduronic acid] the IC50 was over 1000 µM.
Cc1cc(=O)oc2cc(S[C@@H]3OC[C@@H](O)[C@H](O)[C@H]3O)ccc12 [Compound S-2, 4-Methylumbellifer-7-yl 1-thio-β-D-xylopyranoside] showed an IC50 of 74 µM.
With Cc1cc(=O)oc2cc(S[C@@H]3O[C@H](CO)[C@@H](O)[C@H](O)[C@H]3O)ccc12 [Compound S-3, 4-Methylumbellifer-7-yl 1-thio-β-D-glucopyranoside] the IC50 was over 1000 µM.
Cc1cc(=O)oc2cc(S[C@@H]3O[C@H](CO)[C@H](O)[C@H](O)[C@H]3O)ccc12 [Compound S-4, 4-Methylumbellifer-7-yl 1-thio-β-D-galactopyranoside] was tested, and the IC50 was over 1000 µM.
In the case of Cc1cc(=O)oc2cc(S[C@@H]3O[C@H](C)[C@H](O)[C@H](O)[C@H]3O)ccc12 [Compound S-5, 4-Methylumbellifer-7-yl 1-thio-β-D-fucopyranoside], the IC50 is reported as over 1000 µM.
Work on Cc1cc(=O)oc2cc(S[C@H]3O[C@H](CO)[C@H](O)[C@H](O)[C@H]3O)ccc12 [Compound S-6, 4-Methylumbellifer-7-yl 1-thio-α-D-galactopyranoside] yielded an IC50 of over 1000 µM.

These compounds were tested on SK-MEL-28 (melanoma skin cancer) (assay: MTT cell proliferation assay, SK-MEL-28). Conditions: Homo sapiens, 72 h incubation, 95% confidence interval in parentheses.
Type: cell-based
Description: as §1, with “literature. The selected reference drugs were 5-fluorouracil (5-FU) and etoposide.” for “literature.”
Cell proliferation of five distinct cell lines was evaluated using the colorimetric MTT (thiazolyl blue tetrazolium bromide, Sigma) assay. Human keratinocyte normal skin HaCaT was cultivated in DMEM supplemented with 4.5 g/L glucose, 2 mM L-glutamine, and 10% FBS. Cancer cell lines and their respective growth media were obtained from CLS Cell Line Service GmbH (Eppelheim, Germany). Specifically, human skin melanoma SK-MEL-28 and human brain glioma HS683 were cultivated in DMEM with identical supplements as HaCaT cells. The human lung carcinoma cell line A-549 was grown in DMEM/Ham’s F12 (1:1) medium supplemented with 2 mM L-glutamine and 5% FBS. Additionally, human breast adenoma carcinoma MCF-7 cells were sustained in EMEM supplemented with 2 mM L-glutamine, sodium pyruvate, non-essential amino acids (NEAAs), 10 µg/mL insulin human, and 10% FBS. The MTT assay relies on the reduction of the yellow product thiazolyl blue tetrazolium bromide (MTT) to formazan, a purple-blue product, by mitochondrial dehydrogenases in metabolically active cells. The number of living cells after incubation in the presence (or absence, control) of the tested molecules is directly proportional to the blue color, which was measured by spectrophotometry. To perform the assay, cells were initially seeded at a density of 2500 cells/mL in 96-well culture plates (Nunc™ Edge 2.0, Fisher) and allowed to adhere and proliferate over a 24-hour incubation period. Following this, the cells were treated with various concentrations of the tested compounds, which were previously prepared as serial dilutions and dissolved in 0.1% DMSO. These stable solutions guarantee the consistency of experimental conditions over extended periods. Each concentration of the tested compounds underwent triplicate testing (n = 3), and cells were subsequently incubated for 72 h to allow for thorough evaluation. Following this incubation period, MTT reagent (5 mg/mL solution in PBS) was introduced to each well (10% v/v), and cells were further incubated for 4 h. Then, the culture medium was carefully removed, and the resulting blue formazan crystals were dissolved in 100 µL of 100% DMSO. Absorbance readings were taken at 540 nm, referencing a wavelength of 620 nm, using a spectrophotometer. In determining the IC50, the absorbance of serial dilutions of each cell line, treated under identical conditions but without the presence of the tested compounds, was measured.
In the case of Cc1cc(=O)oc2cc(S)ccc12 [Compound 7-MC, 7-mercapto-4-methylcoumarin, reference compound], the IC50 is reported as 306 µM.
Work on Cc1cc(=O)oc2cc(S[C@@H]3O[C@H](C(=O)O)[C@@H](O)[C@H](O)[C@H]3O)ccc12 [Compound S-1, 4-Methylumbellifer-7-yl 1-thio-β-D-glucopyranosiduronic acid] yielded an IC50 of over 1000 µM.
Cc1cc(=O)oc2cc(S[C@@H]3OC[C@@H](O)[C@H](O)[C@H]3O)ccc12 [Compound S-2, 4-Methylumbellifer-7-yl 1-thio-β-D-xylopyranoside] was tested, and the IC50 was 228 µM.
With Cc1cc(=O)oc2cc(S[C@@H]3O[C@H](CO)[C@@H](O)[C@H](O)[C@H]3O)ccc12 [Compound S-3, 4-Methylumbellifer-7-yl 1-thio-β-D-glucopyranoside] the IC50 was over 1000 µM.
Cc1cc(=O)oc2cc(S[C@@H]3O[C@H](CO)[C@H](O)[C@H](O)[C@H]3O)ccc12 [Compound S-4, 4-Methylumbellifer-7-yl 1-thio-β-D-galactopyranoside] gave an IC50 of over 1000 µM.
Cc1cc(=O)oc2cc(S[C@@H]3O[C@H](C)[C@H](O)[C@H](O)[C@H]3O)ccc12 [Compound S-5, 4-Methylumbellifer-7-yl 1-thio-β-D-fucopyranoside] was tested, and the IC50 was over 1000 µM.
Compound Cc1cc(=O)oc2cc(S[C@H]3O[C@H](CO)[C@H](O)[C@H](O)[C@H]3O)ccc12 [Compound S-6, 4-Methylumbellifer-7-yl 1-thio-α-D-galactopyranoside] has an IC50 of over 1000 µM.
